The text below walks through data of US20080267948A1, “Croos-B Structure Binding Compounds” (priority 2005, published 2008).

The subject of test [1] is human blood platelets. The experiment in a line: Platelet aggregation (aggregometric assay with washed platelets). It is filed as cell-based. As to conditions: for platelet aggregation by compound alone: 25 or 50 μg/ml ellagic acid, hydrate. The procedure: The influence of amyloid-β(1-40) E22Q Dutch type (Aβ) peptide aggregates with cross-β structure conformation on blood platelet aggregation was tested with washed platelets in an aggregometric assay. Freshly drawn human aspirin free blood was mixed gently with citrate buffer to avoid coagulation. Blood was spinned for 15′ at 150*g at 20° C. and supernatant was collected; platelet rich plasma (PRP). […] After spinning down the platelets upon centrifugation for 15′ at 330*g at 20° C., the pellet was resuspended in HEPES-Tyrode buffer pH 6.5. Prostacyclin was added to a final concentration of 10 ng/ml, and the solution was centrifuged for 15′ at 330*g at 20° C., with a soft brake. The pellet was resuspended in HEPES-Tyrode buffer pH 7.2 in a way that the final platelet number was adjusted to 200,000/μl. Platelets were kept at 37° C. for at least 30′, before use in the assays, to ensure that they were in the resting state.
Aggregation of platelets was monitored in an aggregometer (Chrono-Log Corporation, Havertown, Pa., USA) for 15 minutes at 37° C. with a magnet stirring speed of 900 rpm. First, 270 μl of platelet solution was pipetted in the cuvettes and after 1 minute of stirring, 30 μl of preincubated (5 minutes, RT) Aβ and Hematein solution or control was added. The hematein stock was 10 mg/ml in HEPES-Tyrode buffer. The Aβ stock was 1 mg/ml. For blank readings unstirred HEPES Tyrode buffer was used. The aggregation is expressed as the percentage of the light transmission (0-100%). As a positive control, synthetic thrombin receptor activating peptide (TRAP) induced platelet aggregation was used. A control experiment was performed to study the influence of the red colour of hematein on the light transmission. For this, 4 μM TRAP was added at time 1 minute to the platelets, then hematein was added after 6 minutes of aggregation. The platelets were used for not more than 4 hours after isolation to reduce variations in sensitivity amongst subsequent measurements.
Ellagic acid was first dissolved to 100 mg/ml in DMSO, and then further diluted to 1 mg/ml in HBS buffer. Final concentrations of Aβ and ellagic acid in the aggregation assay were 50 μg/ml and 25/50 μg/ml, respectively. In addition, the influence of ellagic acid alone on platelet aggregation was tested. As a control, the influence of 0.08% DMSO on 50 μg/ml Aβ-induced platelet aggregation was analyzed. The 100% DMSO of the ellagic acid stock was diluted 2000 and 4000×, resulting in […] final DMSO concentrations in the aggregation assay.

The target in test [2] is T1, tPA/plasminogen (Homo sapiens, UniProt P00750).
T1 construct: purchased Boehringer Ingelheim Actilyse
The experiment in a line: tPA/plasminogen activation by pre-formed misfolded OVA in the presence of compounds. It is filed as biochemical. The note with it: 80-fold or 160-fold diluted compound and misfolded OVA stocks of 1 mg/ml. The procedure:
[…] Negative control was buffer without OVA. […] In addition, it was assessed whether the compounds interfere with absorbance readings at 405 nm, with converted chromogenic substrate. […] The yellow solution is divided over wells of an ELISA plate. […] Signals are compared and related to the control.

For test [3], the target named is T1, tPA/plasminogen. Description: tPA/plasminogen activation by OVA heated in the presence of compounds (substrate PNAPEP1751). It is filed as biochemical. The note with it: 25 μg/ml OVA, 25 μg/ml compound, […] DMSO. The procedure, abridged:
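Ovalbumin heated alone in PBS/1% DMSO (positive control) or with compounds at 1 mg/ml, then used 40-fold diluted in a tPA/plasminogen activation assay; buffer without OVA as negative control. Chromogenic substrate conversion read at 405 nm, with compound interference at 405 nm checked; signals related to control.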

Test [4] deals with T2, factor XII (Homo sapiens, UniProt P00748).
T2 sequence (P00748 20-615): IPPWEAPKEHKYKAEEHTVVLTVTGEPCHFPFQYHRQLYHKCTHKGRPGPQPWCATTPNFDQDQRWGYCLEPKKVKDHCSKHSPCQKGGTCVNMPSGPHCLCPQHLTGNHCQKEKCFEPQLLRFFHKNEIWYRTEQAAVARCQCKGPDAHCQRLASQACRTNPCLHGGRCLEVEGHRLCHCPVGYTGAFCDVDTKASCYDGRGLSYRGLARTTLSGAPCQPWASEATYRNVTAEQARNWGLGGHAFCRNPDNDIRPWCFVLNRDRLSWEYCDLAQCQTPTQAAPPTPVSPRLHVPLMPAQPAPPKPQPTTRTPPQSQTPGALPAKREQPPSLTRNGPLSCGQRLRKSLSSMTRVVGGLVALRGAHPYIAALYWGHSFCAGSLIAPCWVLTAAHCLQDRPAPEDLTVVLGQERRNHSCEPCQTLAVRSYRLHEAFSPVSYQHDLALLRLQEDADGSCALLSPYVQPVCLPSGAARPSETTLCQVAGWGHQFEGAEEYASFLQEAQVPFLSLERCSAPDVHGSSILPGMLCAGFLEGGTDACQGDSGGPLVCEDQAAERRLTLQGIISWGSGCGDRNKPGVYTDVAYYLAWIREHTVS
Description: Factor XII activation assay (chromogenic, prekallikrein, Chromozyme-PK). The arrangement: purchased Calbiochem. It is filed as biochemical. As to conditions: for activation of factor XII by compound alone: without protein cofactor, ellagic acid 50 μg/ml. The procedure:
For this purpose, in a reaction volume of 60 μl the following components were mixed: 10 μl of 300 μg/ml ellagic acid solution or control buffer, 10 μl of 750 μg/ml I or control buffer, 20 μl of a solution comprising [HEPES-buffered saline, 1.96 μg/ml prekallikrein (Calbiochem), 10 mM ZnCl2, 2.13 μg/ml high molecular weight kininogen (Calbiochem); ‘PK mix’ ], 10 μl Chromozyme-PK (Roche, 1 mg/ml aliquot) and 10 μl of a solution comprising 1 mM ZnCl2, HEPES-buffered saline and 4.76 μg/ml factor XII (Calbiochem); ‘FXII mix’. Nunc Immobilizer plates were blocked with PBS with 1% Tween20 for 1 hour at room temperature under constant motion. All reagents were kept on ice throughout preparation of the experiment. The factor XII activating capacity of ellagic acid (Sigma, E-2250, St. Louis, Mo., USA) or I (Cealb, Sanquin, Amsterdam, The Netherlands) alone, and combination thereof was determined in duplicate. After adding 10 μL of I solution or buffer and 10 μl of ellagic acid solution or buffer to the wells, 20 μL of PK mix was added to each well. Ten μL of kallikrein substrate Chromozyme PK was added to each well, followed by 10 μL of freshly prepared FXII mix. Final I and ellagic acid concentrations are 125 μg/ml and 50 μg/ml. Absorbance was measured at 405 nm at 37° C. for 3 hours with brief shaking every minute.

Entries after “also recorded” stand apart in the source; their conditions may differ.

T1 sequence (P00750 36-562): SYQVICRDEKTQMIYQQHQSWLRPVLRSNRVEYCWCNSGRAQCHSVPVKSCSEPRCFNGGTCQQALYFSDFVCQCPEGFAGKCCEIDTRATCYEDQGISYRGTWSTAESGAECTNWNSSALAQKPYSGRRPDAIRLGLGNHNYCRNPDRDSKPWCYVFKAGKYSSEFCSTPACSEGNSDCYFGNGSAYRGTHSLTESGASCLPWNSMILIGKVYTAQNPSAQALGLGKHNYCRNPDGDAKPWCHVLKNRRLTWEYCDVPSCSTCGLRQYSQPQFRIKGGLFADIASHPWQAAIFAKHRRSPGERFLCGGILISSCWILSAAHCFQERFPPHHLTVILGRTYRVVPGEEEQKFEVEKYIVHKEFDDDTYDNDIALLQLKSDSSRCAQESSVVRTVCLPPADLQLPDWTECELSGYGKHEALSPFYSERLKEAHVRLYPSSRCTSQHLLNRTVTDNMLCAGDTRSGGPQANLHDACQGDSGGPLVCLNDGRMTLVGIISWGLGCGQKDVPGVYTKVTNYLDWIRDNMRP

With `O=c1oc2c(O)c(O)cc3c(=O)oc4c(O)c(O)cc1c4c23` [compound 117, Ellagic acid hydrate], the “influence on Aβ induced platelet aggregation” value in test [1] (25 and 50 μg/ml ellagic acid hydrate, 100 μg/ml Aβ) is reported as “further enhances amyloid-β triggered aggregation”. The “platelet aggregation by compound alone” value in test [1] (listed as ellagic acid hydrate) is recorded as “potent activator of platelets resulting in their aggregation; also recorded: Stimulation of platelet aggregation”; in test [1] (listed as ellagic acid) it was “strong inducer of aggregation”. Moreover, the “influence on tPA/plasminogen activation by pre-formed misfolded OVA” value in test [2] was “Full block of tPA/plasminogen activation by misfolded OVA”. Moreover, the “influence on tPA/plasminogen activation by OVA pre-heated in the presence of compound” value in test [3] is on record as “Inhibition of tPA/plasminogen activation by OVA pre-heated”. In addition, the “activation of factor XII/kallikrein generation, compound combined with human serum albumin” value in test [4] (50 μg/ml ellagic acid with 125 μg/ml HSA, hydrate) is recorded as “potent activator of kallikrein generation; also recorded: kallikrein substrate Chromozyme-PK conversion is only observed when in addition 125 μg/ml HSA is included in the assay”. Besides, in test [4] (summary Table 9), the “Activation of factor XII (summary)” value is reported as “Activation of factor XII”. Also, the “activation of factor XII by compound alone” value in test [4] (listed as Ellagic acid, hydrate) was “factor XII/kallikrein activity comparable to control buffer”; in test [4] (listed as ellagic acid, hydrate) it was “poor activators of factor XII”.
